The text below walks through data of PMC6009881, “New sulfurated derivatives of cinnamic acids and rosmaricine as inhibitors of STAT3 and NF-κB transcription factors” (Journal of Enzyme Inhibition and Medicinal Chemistry, 2017).

Broadly, the IC50 is the concentration that gives 50% inhibition. Usually inhibition stands for the change of the read-out against control, counted positive when it falls. A word on the melting point: it is the temperature of the solid-liquid transition.

Structures can show the parent of a compound that is named as a salt. A value given as a limit tells only on which side of the number the result lay.

One series concerns the target STAT3-SH2 domain (Homo sapiens, UniProt P40763). Briefly: STAT AlphaScreen-based assay (STAT3). Particulars: for IC50: read-out: STAT3 IC50 ±SD; for inhibition at 30 µM: read-out: STAT3 % inhibition ± SD at 30 μM. It is filed as binding. (In general: Bead proximity is the source of the signal in Alpha formats.)
The target of the next series is T1, SH2-domain of STAT1 (Homo sapiens, UniProt P42224).
T1 sequence (P42224 1-750): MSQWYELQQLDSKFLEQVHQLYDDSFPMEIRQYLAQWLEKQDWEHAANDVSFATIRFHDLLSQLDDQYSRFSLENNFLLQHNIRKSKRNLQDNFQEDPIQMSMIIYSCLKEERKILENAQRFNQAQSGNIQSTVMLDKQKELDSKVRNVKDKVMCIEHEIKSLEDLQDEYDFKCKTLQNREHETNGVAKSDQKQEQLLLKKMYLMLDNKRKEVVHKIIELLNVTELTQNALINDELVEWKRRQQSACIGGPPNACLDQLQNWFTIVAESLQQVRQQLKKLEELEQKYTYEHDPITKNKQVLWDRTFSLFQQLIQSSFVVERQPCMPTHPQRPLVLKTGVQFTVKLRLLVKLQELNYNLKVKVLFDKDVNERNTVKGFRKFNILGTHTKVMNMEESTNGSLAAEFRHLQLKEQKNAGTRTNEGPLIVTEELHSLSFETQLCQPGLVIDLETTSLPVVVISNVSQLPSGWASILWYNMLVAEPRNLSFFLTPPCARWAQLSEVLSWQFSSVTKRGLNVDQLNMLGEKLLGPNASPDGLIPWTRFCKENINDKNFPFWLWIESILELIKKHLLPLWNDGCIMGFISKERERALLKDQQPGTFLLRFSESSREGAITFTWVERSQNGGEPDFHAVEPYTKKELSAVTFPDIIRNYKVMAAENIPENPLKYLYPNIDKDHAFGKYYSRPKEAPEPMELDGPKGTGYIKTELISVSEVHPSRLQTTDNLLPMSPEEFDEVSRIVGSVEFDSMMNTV
Description: STAT AlphaScreen-based assay (STAT1 selectivity). It is filed as binding. Particulars: for inhibition at 30 µM: read-out: STAT1 % inhibition ± SD at 30 μM, 30 μM; for IC50: read-out: STAT1 IC50 ±SD. Here is the method:
STAT3 inhibitory activity of the described compounds was tested by the AlphaScreen-based assay to evaluate the potential inhibition of the interaction between STAT3-SH2 domain and pTyr-containing peptides according to the previously reported procedure. For the most interesting compounds, selectivity tests versus STAT1 were performed.
The new sulfurated-drug hybrids, together with their parent compounds have been submitted to the AlphaScreen-based assay, to investigate their ability to bind STAT3 directly, through the evaluation of the inhibition of the binding of SH2-containing proteins to their correspondent phosphopeptides, the physiological ligands. […] Since AlphaScreen is a cell-free assay, not always there is a correspondence between the potency of STAT3 inhibition and cytotoxicity, probably due to not optimal physicochemical properties of the tested compounds, such as solubility and chemical stability in the culture medium and cell permeation.

In series [1] the test system is STAT3 reporter activity in HeLa cells. Description: STAT3 luciferase reporter gene assay. Particulars: Homo sapiens, 2 h pretreatment, oncostatin M 10 ng/ml 4 h, read-out: STAT3 reporter assay (HeLa) IC50 ±SD. It is filed as cell-based. The method, then: STAT3 reporter HeLa stable cell lines (Signosis Inc, Santa Clara, CA) were incubated in a 96-well microplate for 24 h. Cells were pretreated with test compounds for 2 h, and 10 ng/ml (w/v) of oncostatin M were applied and incubated for 4 h. Cells were washed with medium not supplemented with phenol red, and Steady-Glo® reagent (Promega, Madison, WI) was applied. After 15 min incubation, the signals were detected by ARVO Light 1420 (PerkinElmer Life Sciences, Waltham, MA). The relative signal intensity was calculated in each well as the ratio for the mean signal of vehicle.
(A reporter such as luciferase makes a cellular process visible.)

A further series has as its system HCT-116 cells. Briefly: MTT assay, cytotoxicity on HCT-116. It is filed as cell-based, human. Particulars: human, HCT-116 cells, MTT assay, 48 h; NA = not active up to 100 μM; read-out: Cytotoxicity (HCT-116) IC50 ±SD. Here is the method: Following the same protocol used for previous cytotoxicity assays by N. Ferri[55], cells were seeded in 48-well plate (40.000 cells/well) and, after 24 h, they were incubated with different concentrations of our compounds for 48 h.
The determination of the conversion of MTT (3-(4,5-dimethyl-2-thiazolyl)-2,5-diphenyl-2H-tetrazolium bromide) to formazan was determined by using a commercially available kit (Millipore, Billerica, MA), according to the manufacturer’s instructions.
(In general: Tetrazolium dyes change colour on reduction, which living cells bring about.)

STAT3-SH2 domain, sequence (P40763 whole entry, the tested form may be a part): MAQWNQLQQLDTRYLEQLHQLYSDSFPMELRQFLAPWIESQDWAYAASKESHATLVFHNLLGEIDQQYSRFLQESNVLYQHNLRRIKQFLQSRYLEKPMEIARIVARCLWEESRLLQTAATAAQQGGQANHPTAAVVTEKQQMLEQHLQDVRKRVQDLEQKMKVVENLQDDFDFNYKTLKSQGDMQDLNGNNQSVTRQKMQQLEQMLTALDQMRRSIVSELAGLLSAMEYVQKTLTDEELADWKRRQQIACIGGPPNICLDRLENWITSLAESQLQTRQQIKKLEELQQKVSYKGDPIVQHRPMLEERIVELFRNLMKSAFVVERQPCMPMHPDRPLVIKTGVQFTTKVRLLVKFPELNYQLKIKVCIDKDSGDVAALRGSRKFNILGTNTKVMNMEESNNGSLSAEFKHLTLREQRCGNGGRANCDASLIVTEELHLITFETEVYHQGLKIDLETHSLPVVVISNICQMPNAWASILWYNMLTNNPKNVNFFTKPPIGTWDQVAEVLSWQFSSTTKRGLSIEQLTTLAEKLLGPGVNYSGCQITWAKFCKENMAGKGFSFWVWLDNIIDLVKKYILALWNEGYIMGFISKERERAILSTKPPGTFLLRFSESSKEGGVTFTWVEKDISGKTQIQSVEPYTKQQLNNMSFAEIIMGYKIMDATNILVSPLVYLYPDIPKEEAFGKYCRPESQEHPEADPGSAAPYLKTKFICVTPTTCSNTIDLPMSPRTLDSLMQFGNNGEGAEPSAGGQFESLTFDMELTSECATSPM

Consider `COC(=O)CCCCSS(C)(=O)=O` [Compound 7, Methyl 5-((methylsulfonyl)thio)pentanoate], for which the IC50 amounted to 1.9 ± 0.2 µM at STAT3-SH2 domain (AlphaScreen assay) and 20.1 ± 0.4 µM at SH2-domain of STAT1. In addition, the inhibition at 30 µM at STAT3-SH2 domain (AlphaScreen assay) is 99.6 ± 0.1%; on SH2-domain of STAT1 it was 70.8 ± 1.2%.

Consider `C=CCSSCCO` [Compound 4, 2-(Allyldisulfanyl)ethanol], for which, at STAT3-SH2 domain (AlphaScreen assay), the IC50 was determined as 22.2 ± 3 µM and the inhibition at 30 µM stood at 55.7 ± 2.5%. For the same molecule, at SH2-domain of STAT1, the inhibition at 30 µM came out at 11.7 ± 6% and the IC50 was more than 30 µM.

`CS(=O)(=O)SCCOC(=O)C=Cc1ccccc1` [Compound 25, 2-(Methylsulfonylthio)ethyl cinnamate] had a melting point of 76.8 to 78.5 °C. At STAT3-SH2 domain (AlphaScreen assay), the IC50 amounted to 0.5 µM and the inhibition at 30 µM was determined as 100%. The IC50 in series [1] was 72.5 ± 4.4 µM. Moreover, the IC50 at 48 h in the series on HCT-116 cells was determined as 95.2 ± 8.9 µM. Further, at SH2-domain of STAT1, the inhibition at 30 µM is 100.3 ± 0.2% and the IC50 was 3.6 ± 0.4 µM.

With `CS(=O)(=O)SCCCCC(=O)O` [Compound 6, 5-(methanesulfonylthio)pentanoic acid], at STAT3-SH2 domain (AlphaScreen assay), the IC50 stood at 4.7 ± 1.1 µM and the inhibition at 30 µM came to 72.5 ± 4.8%. Also, at SH2-domain of STAT1, the inhibition at 3 µM was 8.6% and the IC50 is more than 3 µM.

As to `COC(=O)/C=C/c1ccc(O)c(O)c1` [Compound 20, (E)-methyl 3-(3,4-dihydroxyphenyl)acrylate], at STAT3-SH2 domain (AlphaScreen assay), the IC50 is more than 30 µM and the inhibition at 30 µM stood at 12.8 ± 1.1%. Besides, the IC50 at 48 h in the series on HCT-116 cells was 90.8 µM.

Take `COc1cc(/C=C/C(=O)Oc2ccc(-c3cc(=S)ss3)cc2)ccc1O` [Compound 18, (E)-4-(3-thioxo-3H-1,2-dithiol-5-yl)phenyl 3-(4-hydroxy-3-methoxyphenyl)acrylate]: at STAT3-SH2 domain (AlphaScreen assay), the IC50 worked out at 28.5 ± 0.7 µM and the inhibition at 30 µM came to 51.3 ± 0.7%. For the same molecule, at SH2-domain of STAT1, the inhibition at 30 µM was 44.2 ± 1.9% and the IC50 is more than 30 µM.

`C=CCSSCCOC(=O)/C=C/c1ccc(O)c(OC)c1` [Compound 17, (E)-2-(allyldisulfanyl)ethyl 3-(4-hydroxy-3-methoxyphenyl)acrylate]: at STAT3-SH2 domain (AlphaScreen assay), the IC50 worked out at 7.8 ± 0.6 µM and the inhibition at 30 µM came out at 67.9 ± 0.8%. Besides, at SH2-domain of STAT1, the inhibition at 30 µM amounted to 12 ± 4.7% and the IC50 is more than 30 µM.

Molecule `CS(=O)(=O)SCCOC(=O)/C=C/c1ccc(Cl)c(Cl)c1` [Compound 26, (E)-2-(methylsulfonylthio)ethyl 3-(3,4-dichlorophenyl)acrylate] showed a melting point of 69.6 to 71.2 °C. At STAT3-SH2 domain (AlphaScreen assay), the IC50 was 0.3 µM and the inhibition at 30 µM was 100 ± 0.1%. At SH2-domain of STAT1, the inhibition at 30 µM amounted to 104 ± 1.7% and the IC50 turned out to be 1.9 ± 0.2 µM.

Turning to `COCCOCOc1ccc(/C=C/C(=O)NCCSS(C)(=O)=O)cc1OCOCCOC` [Compound 29, (E)-S-2-(3-(3,4-bis((2-methoxyethoxy)methoxy)phenyl)acrylamido)ethyl methanesulfonothioate], the melting point lay in the range of 62.3 to 64.6 °C. For the same molecule, on STAT3-SH2 domain (AlphaScreen assay), the IC50 turned out to be 1.1 µM and the inhibition at 30 µM amounted to 100.1 ± 0.1%. At SH2-domain of STAT1, the inhibition at 30 µM stood at 63.3 ± 0.5% and the IC50 amounted to 19.5 ± 0.3 µM.

As to `CS(=O)(=O)SCCN` [Compound 3, S-2-aminoethyl methanesulfonothioate hydrobromide], the inhibition at 3 µM stood at 46.8% against STAT3-SH2 domain (AlphaScreen assay, 3 μM) and 14.5% against SH2-domain of STAT1. The values for the IC50 on STAT3-SH2 domain (AlphaScreen assay) and on SH2-domain of STAT1 were more than 30 µM and more than 3 µM, respectively. Besides, on STAT3-SH2 domain (AlphaScreen assay), the inhibition at 30 µM is -10.2%.

The molecule `CS(=O)(=O)CCCCC(=O)O` [Compound 8, 5-(Methylsulfonyl)pentanoic acid] had a melting point of 111.3 to 112.8 °C. Moreover, on STAT3-SH2 domain (AlphaScreen assay), the “STAT3 IC50 ±SD” value is “loss of activity on STAT3”, the IC50 was more than 30 µM and the inhibition at 30 µM is 3.8 ± 2.8%.

As to `COC(=O)/C=C/c1ccc(O)c(OC)c1` [Compound 13], at STAT3-SH2 domain (AlphaScreen assay), the IC50 was more than 30 µM and the inhibition at 30 µM stood at 2.1 ± 2.3%.

As to `C=CCSSCCC(=O)OC` [Compound 10, Methyl 3-(allyldisulfanyl)propanoate], the IC50 at STAT3-SH2 domain (AlphaScreen assay) and on SH2-domain of STAT1 was more than 30 µM in each case. In addition, the inhibition at 30 µM at STAT3-SH2 domain (AlphaScreen assay) is 42 ± 4.7%; on SH2-domain of STAT1, 11.2%.

Take `COc1cc(/C=C/C(=O)O)ccc1O` [Compound 12, ferulic acid, reference compound]: at STAT3-SH2 domain (AlphaScreen assay), the IC50 was more than 30 µM and the inhibition at 30 µM was 0.2 ± 8.2%.

Consider `COCCOCOc1ccc(/C=C/C(=O)OCCSS(C)(=O)=O)cc1OCOCCOC` [Compound 28, (E)-2-(methylsulfonylthio)ethyl 3-(3,4-bis((2-methoxyethoxy)methoxy)phenyl)acrylate], for which the IC50 on STAT3-SH2 domain (AlphaScreen assay) is 0.6 ± 0.1 µM; at SH2-domain of STAT1 it was 6.3 ± 0.5 µM. Moreover, the inhibition at 30 µM stood at 100 ± 0.1% on STAT3-SH2 domain (AlphaScreen assay) and 98.4 ± 0.9% at SH2-domain of STAT1.

For the molecule `O=C(O)c1ccc(-c2cssc2=S)cc1` [Compound 11, 4-(3-thioxo-3H-1,2-dithiol-4-yl)benzoic acid], the IC50 (at STAT3-SH2 domain (AlphaScreen assay); in series [1]) was more than 100 µM in each case. Further, the inhibition at 30 µM on STAT3-SH2 domain (AlphaScreen assay) is -1.2 ± 6%.

As for `COc1ccc(/C=C/C(=O)OCCSS(C)(=O)=O)cc1OC` [Compound 27, (E)-2-((methylsulfonyl)thio)ethyl 3-(3,4-dimethoxyphenyl)acrylate], the melting point fell in the range of 99.8 to 102.7 °C. Moreover, at STAT3-SH2 domain (AlphaScreen assay), the half-maximal inhibitory concentration (IC50) was determined as 0.3 µM and the inhibition at 30 µM was determined as 99.7 ± 0.1%. The “fold more selective for STAT3 versus STAT1” value at STAT3-SH2 domain (in comparison to 15 and 26) was determined as 10 fold. Besides, at SH2-domain of STAT1, the inhibition at 30 µM stood at 68.9 ± 10.2% and the IC50 amounted to 20.9 ± 4.9 µM.

For `C=CCSSCCC(=O)O` [Compound 9, 3-(allyldisulfanyl)propionic acid], at STAT3-SH2 domain (AlphaScreen assay), the IC50 was more than 30 µM and the inhibition at 30 µM was found to be 43.9 ± 3.6%.

Take `CS(=O)(=O)SCCCCO` [Compound 2, S-4-hydroxybutyl methanesulfonothioate]: the results for the IC50 at STAT3-SH2 domain (AlphaScreen assay) and on SH2-domain of STAT1 were 4.4 ± 0.3 µM and 8.6 ± 0.7 µM, respectively. Moreover, the inhibition at 30 µM came out at 88.4 ± 0.5% at STAT3-SH2 domain (AlphaScreen assay) and 73.7 ± 1.4% on SH2-domain of STAT1.

For `CS(=O)(=O)SCCO` [Compound 1, S-2-hydroxyethyl methanesulfonothioate], at STAT3-SH2 domain (AlphaScreen assay), the IC50 is more than 30 µM and the inhibition at 30 µM stood at 11.6%.

`COc1cc(/C=C/C(=O)NCCSS(C)(=O)=O)ccc1O` [Compound 16, (E)-S-2-(3-(4-hydroxy-3-methoxyphenyl)acrylamido)ethyl methanesulfonothioate]: on STAT3-SH2 domain (AlphaScreen assay), the IC50 was determined as 1.8 ± 0.5 µM and the inhibition at 30 µM stood at 107.8 ± 0.1%. For the same molecule, at SH2-domain of STAT1, the inhibition at 30 µM is 4.1 ± 5.4% and the IC50 is more than 30 µM.

Consider `CS(=O)(=O)SCCNC(=O)/C=C/c1ccc(O)c(O)c1` [Compound 22, (E)-S-2-(3-(3,4-dihydroxyphenyl)acrylamido)ethyl methanesulfonothioate], for which the IC50 was 0.9 ± 0.1 µM at STAT3-SH2 domain (AlphaScreen assay) and more than 30 µM on SH2-domain of STAT1. The inhibition at 30 µM on STAT3-SH2 domain (AlphaScreen assay) is 99.8 ± 0.1%; at SH2-domain of STAT1 it was -17.8 ± 0.3%.
